The record followed here is ChEMBL document CHEMBL1641528, “Reverse type I inhibitor of Mycobacterium tuberculosis CYP125A1” (Bioorg Med Chem Lett, 2011).

The target of this assay is Steroid C26-monooxygenase (Mycobacterium tuberculosis, UniProt P9WPP1, C429L). As to the kind of experiment: Binding affinity to Mycobacterium tuberculosis H37Rv CYP125A1 C429L mutant expressed in Escherichia coli by titration plot analysis.

Usually Kd stands for the concentration at which binding is half-saturated. Low values mean tighter binding, high ones weaker binding.

In the case of `CC1CCC(C(=O)NC(Cc2c[nH]c3ccccc23)C(=O)Nc2ccncc2)CC1` (stereo unspecified), the Kd was found to be 1680 nM.
